Common to all, as to assay type: cell-based, human
One data set concerns panel of SCLC cell lines. The data set can be described thus: CCK-8 cytotoxicity in a panel of SCLC cell lines (statements on the panel). Particulars: 72 h. How it is done:
The expression levels of DRP1 and DHODH in SCLC lines were compared with non-malignant BEAS 2B cells. […] Previous studies have shown that Leflu and its active metabolite Teri regulate mitochondrial morphology (9,10,26). […] In vitro cytotoxicity effect of Teri and Leflu was tested in a panel of SCLC cell lines. Ten SCLC cell lines were treated with increasing concentrations of each drug for 72 h.
Among the drugs approved for SCLC, lurbinectedin is used to treat patients with metastatic SCLC with disease progression. Lurbinectedin (Lur) is an inhibitor of RNA polymerase II, which is commonly hyperactivated in SCLC, resulting in excessive transcription in tumor cells (44). In this study, we tested the combination of Lur with Teri to see if it may reduce the viability of SCLC cells.

Data set [1] relates to H446 spheroids. As to the kind of experiment: Imaris mitochondrial morphology in spheroids. Particulars: Teri 1600 nM, Teri/Lur 800, 1600 nM/pM. As to the method:
Spheroids were transferred to low cell attachment dishes, grown for two days, and treated with drug. After treatment, spheroid samples were run with Western blot assay. For spheroid mitochondria visualization, they were stained with 250 nM MitoTracker® Red CMXRos and Hoechst from ThermoFisher Scientific (Waltham, MA) for 2 h after drug treatment. Spheroids were washed, fixated with 4% PFA, transferred into 96-well flat glass-bottom black microplate (Cellvis, Mountain View, CA), and mounted in wells. […] Z-stacks were acquired in Airyscan Fast mode with a 2.0 μm interval and optical zoom of 2.0. […] In Airyscan Fast mode excitation was provided by 405 nm (1.0%) and 561 nm (1.0%) lasers with gain and detection wavelengths: DAPI […] (450 nm) and Red […] (579 nm). 2D images were acquired with a 20×/0.8 NA Plan-Apochromat objective and captured with PMT detectors. […] Roundness ratios were calculated from Surface generated Bounding Box 00 Length measurements. Object lengths less than 0.1 μm were excluded, and lengths greater than 1.26 μm were separately analyzed as clusters. […] The Cells module was used to detect and quantify mitochondria and nucleus area from cell monolayers. […] Imaris includes nuclei in cytoplasm measurements, so mitochondrial area is calculated by subtracting nucleus area from cell cytoplasm area. […]

Data set [2] has as its system H446 spheroids. As to the kind of experiment: Immunoblotting of spheroid lysates. To be noted: for DRP1 phosphorylation at Ser616: Teri 1600 and 3200 nM. As to the method: SCLC total cell lysates were prepared using RIPA (radioimmunoprecipitation assay lysis buffer) lysis buffer. Protein concentration was determined using DC Protein Assay Kit Bio-Rad (Hercules, CA). Samples were then run on SDS-PAGE in 4-15% polyacrylamide gels and transferred onto Immobilon membranes (Millipore, MO), blocked, incubated with specific primary antibodies at 4° C. overnight, and subsequently developed with secondary antibodies. The following primary antibody were used: pan-Actin, Phospho-DRP1 (Ser^616), Phospho-DRP1 (Ser^637), Histone H2B (V^119), Phospho-Histone H2A.X (Ser^139), Phospho-P53 (Ser^15), P-53, Cleaved PARP (Asp^214) (D64E10), Phospho-Chk1 (Ser^345) (133D3) and p21 were from Cell Signaling Technology (City of Industry, CA), β-Actin (Sigma-Aldrich, St. Luis, MO), Phospho RNA Polymerase II (S2) antibody (Bethyl Lab, Montgomery, TX), RNA Polymerase II CTD4H8 (BioLegend, San Diego, CA), DHODH (E-8), DRP1 (C-5), GAPDH (0411), c-Myc (9E10), Tom20 (F-10), FisI (B-5), OPA1 (D-9), antibodies from Santa Cruz Biotechnology (Dallas, TX) and MFN2 (Abcam, Boston, MA) and Chk1, MDM2, Cyclin CDK4 and D1, and E2F1 (Proteintech, Rosemont, IL).
SBC3 and H446 cells were plated at a density of 10,000 cells per well in 96-well ULA round-bottomed plates (S-Bio, Hudson, NH) and incubated for 72 h at 37° C., 5% CO2, and 95% humidity. Spheroids were transferred to low cell attachment dishes, grown for two days, and treated with drug. After treatment, spheroid samples were run with Western blot assay. For spheroid mitochondria visualization, they were stained with 250 nM MitoTracker® Red CMXRos and Hoechst from ThermoFisher Scientific (Waltham, MA) for 2 h after drug treatment. Spheroids were washed, fixated with 4% PFA, transferred into 96-well flat glass-bottom black microplate (Cellvis, Mountain View, CA), and mounted in wells.
A general note: In western blotting, separated proteins are transferred to a membrane and probed.

The subject of a further data set is SBC5 cells. As to the kind of experiment: Imaris quantification of mitochondrial and nuclear areas/morphology. Particulars: for effect on mitochondrial areas: SBC5. As to the method: Imaris 9.9.0 (Bitplane, AG), with Surfaces and Cells modules, was used to generate mitochondria morphology data from 2D images and 2D Z-stack subsets. Surfaces were used to evaluate individual mitochondria from cell monolayers and spheroids. Detection parameters were optimized for visible mitochondria and nuclei in each group with varying signal intensities. Roundness ratios were calculated from Surface generated Bounding Box 00 Length measurements. Object lengths less than 0.1 μm were excluded, and lengths greater than 1.26 μm were separately analyzed as clusters. Thresholds were uniformly applied to roundness ratios to categorize mitochondria morphology as elongated (<0.599), intermediate (≥0.600-0.649), or round/fragmentated (≥0.650). The percentage of cells from total number is based on a ratio. A perfectly round object has a ratio of 1.0. The Cells module was used to detect and quantify mitochondria and nucleus area from cell monolayers. Identical parameters were applied to all groups with cell boundary detection based on mitochondria signals. Imaris includes nuclei in cytoplasm measurements, so mitochondrial area is calculated by subtracting nucleus area from cell cytoplasm area. Abnormal nuclei were excluded (<100 μm^2, >750 μm^2).
Next, we performed the same analysis with SBC5 cells. […] Mitochondrial elongation in SBC3 cells treated with Teri and Leflu is visible and correlates with Imaris Surface results. […] Although mitochondrial areas of SBC5 cells were not affected by Teri and Leflu treatments, elongations of individual mitochondria were detected with each treatment (FIG. 2I). […] Therefore, it is important to investigate the effects of Teri and Leflu on mitochondrial morphology and cell survival in combination with chemotherapeutic drugs.

Regarding `COc1ccc2[nH]c3c(c2c1)CCN[C@]31CS[C@@H]2c3c(OC(C)=O)c(C)c4c(c3[C@H](COC1=O)N1[C@@H]2[C@H]2c3c(cc(C)c(OC)c3O)C[C@@H]([C@@H]1O)N2C)OCO4` [Lurbinectedin, lurbinectedin], in the data set with panel of SCLC cell lines (H69, H82, H446, SBC3, and SBC5 cells), the “cell cytotoxicity at low doses” value was “drastically increased cell cytotoxicity”. For the same molecule, in the data set with H446 spheroids [1], the “Percentages of round/fragmentated mitochondria” value is “significantly decreased”. Moreover, in the data set with H446 spheroids [2], the CDK4 entry is reported as “inactivated” and the “DRP1 phosphorylation at Ser616” value is reported as “reduction”.

`C/C(O)=C(\C#N)C(=O)Nc1ccc(C(F)(F)F)cc1` [Teriflunomide, teriflunomide]: the IC50 in the data set with panel of SCLC cell lines (Homo sapiens, five of ten SCLC cell lines, read-out: IC50 in the five sensitive cell lines) is less than 11 µM. Besides, the “effect on mitochondrial areas” value in the data set on SBC5 cells is given as “not affected”. The Nuclear area in the data set on SBC5 cells (SBC5, 10 μM) is 369.5±6.15 μm^2; in the data set on SBC5 cells (SBC5, 20 μM), 369.8±5.94 μm^2. The “Percentages of round/fragmentated mitochondria” value in the data set on H446 spheroids [1] is listed as “significantly decreased”. Also, the p21 entry in the data set with H446 spheroids [2] is on record as “strongly elevated”. Besides, the “DRP1 phosphorylation at Ser616” value in the data set with H446 spheroids [2] was “dose-dependent inhibition”.

For `Cc1oncc1C(=O)Nc1ccc(C(F)(F)F)cc1` [Leflunomide, leflunomide], the “IC50 doses compared with Teri” value in the data set on panel of SCLC cell lines (ten SCLC cell lines) was “much higher”. Further, the “effect on mitochondrial areas” value with SBC5 cells is reported as “not affected”. The Nuclear area with SBC5 cells (SBC5, 20 μM) was determined as 386.8±7.23 μm^2.

One may read the IC50 as the concentration at which inhibition is half-maximal.
